# According to patent US20030176479A1, “Use of selective EP4 receptor agonists for the treatment of liver failure, loss of patency of the ductus arteriosus, glaucoma or ocular hypertension” (priority 2002, published 2003):
# Target: T1, rat EP4 receptor (Rattus norvegicus, UniProt P43114)
# T1 construct: expressed in transfected cells
# Assay: Cyclic AMP elevation in 293S cell lines stably overexpressing recombinant rat EP4 receptors
# Type: cell-based
# Conditions: 293S cells expressing rat EP4, 1 mM IBMX, 12 minutes at 37° C.; read-out: EC50 in the cAMP (rat EP4) elevation assay
# From the text: Determination of Cyclic AMP Elevation in 293S Cell Lines Stably Overexpressing Recombinant Rat EP4 Receptors Assay
# cDNA representing the complete open reading frame of the rat EP4 receptor is generated by reverse transcriptase polymerase chain reaction using oligonucleotide primers based on published sequences. The full length coding sequence for the rat EP4 receptor is made in accordance with the procedure in Sando et al., Biochem. Biophys. Res. Comm. 1994, 200, 1329-1333, and RNA from rat kidney (EP4) as templates. 293S cells are transfected with the cloned rat EP4 receptor in pcDNA3 by lipid mediated transfection. Stable cell lines expressing the rat EP4 receptor are established following selection of transfected cells with Geneticin® (Invitrogen Corporation, Carlsbad, Calif.).
# Clonal cell lines expressing the maximal number of receptors are chosen following a whole cell ^3H-PGE2 binding assay using unlabeled PGE2 as a competitor. […] Constitutive expression of the receptor in parental 293-S cells is negligible. A stable cell line containing the rat EP4 receptor is grown in Dulbecco's Mosified Eagle Medium/F12 (DMEM/F12) containing 10% fetal bovine serum and G418 (500 μg/ml) to 80% confluency.
# cAMP responses in the 293-S/EP4 lines are determined by detaching cells from culture flasks in 1 ml of calcium (Ca++) and magnesium (Mg++) deficient phosphate buffered saline (PBS) via vigorous pounding and then rinsing the cells with calcium (Ca++) and magnesium (Mg++) deficient phosphate buffered saline (PBS). The cells are resuspended in MEM (Minimum Essential Medium), 1% BSA (bovine serum albumin), 50 mM HEPES (N-[2-Hydroxyethyl]piperazine-N′-[2-ethanesulfonic acid]) at 37° C. The cell suspension is counted on a hemacytometer and diluted by adding MEM (Minimum Essential Medium) to a final concentration of 1×10^6 cells/ml, and adding 3-isobutyl-1-methylxanthine (IBMX) to a final concentration of 1 mM. 200 microliters of cell suspension is immediately aliquoted into individual tubes and incubated for 10 minutes, uncovered, at 37° C., 5% CO2, 95% relative humidity. The compound of Formula I or II to be tested in either dimethylsulfoxide (DMSO) or ethanol is then added to cells at 1:100 dilutions such that the final DMSO or ethanol concentration is 1%. Typically, the cells are treated with 6-8 different concentrations (in 1 log increments, such as those described below) of the compound of Formula I or II. Typical concentrations of the compound of Formula I or II in this assay are between 10^−5M to 10^−10M. For example, a six point compound dose response assay tests the compound of Formula I or II at concentrations of 10^−5M, 10^−6M, 10^−7M, 10^−8M, 10^−9M and 10^—10M. Immediately after adding the test compound, the tubes are covered, mixed by inverting two times, and incubated at 37° C. for 12 minutes. Samples are then lysed by incubation at 100° C. for 10 minutes and immediately cooled on ice for 5 minutes to approximately 4° C. Cellular debris is pelleted by centrifugation at 3500×g for 5 minutes at approximately 4° C., and cleared lysates are transferred to fresh tubes. cAMP concentrations are determined using a commercially available ^125I-cAMP radioimmunoassay (RIA) kit (NEK-033, Perkin-Elmer Life Sciences, Inc., Boston, Mass.). The cleared lysates are diluted 1:100 in cAMP RIA assay buffer (included in kit) and centrifuged again. 50 microliters of the resulting supernatant is transferred to a 12×75 mm glass tube and data is collected by scintillation counting using a Wallac Cobra II Gamma Counter (Perkin-Elmer Wallac, Inc., Gaithersburg, Md.). EC50 calculations are performed on a calculator using linear regression analysis on the linear portion of the dose response curves or using Data Fitter.
# T1 sequence (P43114 whole entry): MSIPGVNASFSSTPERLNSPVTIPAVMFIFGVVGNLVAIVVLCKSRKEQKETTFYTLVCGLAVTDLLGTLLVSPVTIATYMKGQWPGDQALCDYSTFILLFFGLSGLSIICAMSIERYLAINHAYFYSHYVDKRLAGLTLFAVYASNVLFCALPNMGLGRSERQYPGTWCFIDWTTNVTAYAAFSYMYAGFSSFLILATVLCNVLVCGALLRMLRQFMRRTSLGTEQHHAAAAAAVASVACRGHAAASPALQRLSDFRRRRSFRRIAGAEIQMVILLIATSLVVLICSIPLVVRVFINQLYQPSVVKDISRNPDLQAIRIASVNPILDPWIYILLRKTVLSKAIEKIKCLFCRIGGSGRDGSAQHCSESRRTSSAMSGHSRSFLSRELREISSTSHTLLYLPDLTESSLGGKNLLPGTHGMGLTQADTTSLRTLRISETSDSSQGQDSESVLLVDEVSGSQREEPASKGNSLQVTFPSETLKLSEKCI
row,SMILES,EC50 [nM]
1,"O=C1CC[C@H](CCC(O)Cc2cccc(Cl)c2)N1CCCCCCc1nn[nH]n1 (stereo partly drawn) [Example 3, 5S-[4-(3-Chloro-phenyl)-3-hydroxy-butyl]-1-[6-(2H-tetrazol-5-yl)-hexyl]-pyrrolidin-2-one]",33.1
2,"O=C1CC[C@H](CC[C@@H](O)Cc2cccc(C(F)(F)F)c2)N1CCCCCCc1nn[nH]n1 [Example 4, 5S-[3R-Hydroxy-4-(3-trifluoromethyl-phenyl)-butyl]-1-[6-(2H-tetrazol-5-yl)-hexyl]-pyrrolidin-2-one]",70.2
3,"O=C1CCC(CCC(O)Cc2cccc(-c3ccccc3)c2)N1CCCCCCc1nn[nH]n1 (stereo not drawn) [Example 6, 5-(4-Biphenyl-3-yl-3-hydroxy-butyl)-1-[6-(2H-tetrazol-5-yl)-hexyl]-pyrrolidin-2-one]",175

# The remaining lines, values ahead:
row,EC50 [nM],SMILES
1,8.8,"O=C(O)CCCCCCN1C(=O)CC[C@@H]1CC[C@@H](O)Cc1cccc(Cl)c1 [Example 1, 7-{2S-[4-(3-Chloro-phenyl)-3R-hydroxy-butyl]-5-oxo-pyrrolidin-1-yl}-heptanoic acid]"
2,13.2,"O=C(O)CCCCCCN1C(=O)CC[C@@H]1CC[C@@H](O)Cc1cccc(C(F)(F)F)c1 [Example 2, 7-{2S-[3R-hydroxy-4-(3-trifluoromethyl-phenyl)-butyl]-5-oxo-pyrrolidin-1-yl}-heptanoic acid]"
3,32.5,"O=C(O)CCCCCCN1C(=O)CCC1CCC(O)Cc1ccccc1 (stereo not drawn) [Example 9, 7-(2-(3-hydroxy-4-phenyl-butyl)-5-oxo-pyrrolidin-1-yl)-heptanoic acid]"
